The values that follow come from BindingDB's records for patent US20250042862 (Shanghai Institute of Materia Medica, 2025).

This assay addresses Lysine-specific histone demethylase 1A (Homo sapiens, UniProt O60341). The assay can be described thus: In Vitro Enzyme Inhibition Activity Assay. How it is done:
The purpose of this experiment was to test the in vitro inhibitory activity of the compounds against LSD1. The human recombinant LSD1 protein used in the experiment was purchased from Active Motif, and the enzyme level activity testing assay of LSD1 was performed using the Lance Ultra LSD1 Histone H3 Lysine 4 Demethylase Assay Kit (PerkinElmer). Tris-buffer (50 mMTris-HCl, 50 mMNaCl, 0.01% Tween-20, 1 mM DTT, 10 μM FAD, 10% glycerol, pH 9.0) was first prepared, and after preparation, the LSD1 fractions required for test were placed in this buffer and incubated for one hour at room temperature; the fractions included 4 μL of substrate solution ([…] Bio-H3K4me2, 1-24aa), 4 μL of enzyme solution (4 nM LSD1), and 2 μL of inhibitor in a 384-well microplate. After these operations, another 5 μL of assay mixture containing Eu-labeled H3K4me0 antibody and ULight-Streptavidin anti-biotin protein was added to the system, after which the fluorescence intensity of the components to be tested was detected by using Envision (PerkinElmer) in TR-FRET mode (excitation wavelength of 320 nm, emission wavelength of 620 nm). The test was repeated a total of three times to minimize errors. The final IC50 data were calculated by the software GraphPad Prism 5, and finally the sigmoidal dose-response (variable slope) method was used to obtain the fitted curve.

What is called IC50 is the concentration at which inhibition is half-maximal. In turn, `N#Cc1ccc(-c2nc(NC[C@H]3CCNC3)nc3ccc(-c4ccccc4Cl)cc23)cc1F` [US20250042862, Compound 42] came in with an IC50 of less than 0.03 µM.

`N#Cc1ccc(-c2nc(NC[C@H]3CCNC3)nc3ccc(-c4ccccc4C(F)(F)F)cc23)cc1F` [US20250042862, Compound 40]: the IC50 was less than 0.03 µM.
